Results on one substance are retold here after patent US10874733B2 (priority 2016, dated 2020).

Common to all, as to assay type: physicochemical
Series [1] is described as follows: Liposome size by dynamic light scattering (hydrodynamic size). Conditions: for Liposome size (d, nm): DMPC:DOTAP liposome. The protocol: 1 mL of each of the sample of the lipid dissolution step and 1 mL of a sample obtained by simply mixing the glycolipid of Preparation Example 2-(3) with liposome were added to a cuvette, and a hydrodynamic size was measured using a dynamic light-scattering apparatus (Malvern instrument, ZSP nano) (Table 2).

The nature of series [2]: Liposome size homogeneity (PDI, size distribution) by dynamic light scattering. The settings on record: for Liposome PDI: DMPC:DOTAP liposome. The protocol:
1 mL of each of the sample of the lipid dissolution step and 1 mL of a sample obtained by simply mixing the glycolipid of Preparation Example 2-(3) with liposome were added to a cuvette, and a hydrodynamic size and distribution were analyzed using a dynamic light-scattering apparatus (Malvern instrument, ZSP nano) (Table 3, FIGS. 3 and 4). FIG. 3 is a diagram showing a liposome size distribution in a lipid-solubilization step, and FIG. 4 is a diagram showing a liposome size distribution in a step of simply mixing glycolipid with a liposome.

A short description of series [3]: Liposome surface charge (zeta potential). The settings on record: for Liposome surface charge (mV): DMPC:DOTAP liposome. The protocol:
1 mL of each of the sample of the lipid dissolution step and 1 mL of a sample obtained by simply mixing the glycolipid of Preparation Example 2-(3) with a liposome were loaded on a cuvette for measuring a surface charge (zeta potential), and a surface charge was measured using a dynamic light-scattering apparatus (Malvern instrument, ZSP nano) (Table 4).

Setting [4] is: lipid dissolution step, glycolipid content 1 mol %.
Where [5] appears, read: lipid dissolution step, glycolipid content 3 mol %.
[6] abbreviates: step of simple mixing with liposome, glycolipid content 1 mol %.
[7] abbreviates: step of simple mixing with liposome, glycolipid content 3 mol %.
Where [8] appears, read: step of simple mixing with liposome, glycolipid content 6 mol %.
Where [9] appears, read: lipid dissolution step, glycolipid content 6 mol %.

As for Monophosphoryl lipid A [MPL], the “Liposome size (d, nm)” value was found to be 355.4 nm in series [1] (glycolipid incorporated in lipid dissolution step, glycolipid content 6 mol %); 367.9 nm in series [1] (setting [4]); 309.2 nm in series [1] (setting [5]); 694.9 nm in series [1] (setting [6]); 1206.1 nm in series [1] (setting [7]); 1538.7 nm in series [1] (setting [8]). Moreover, the “Change of liposome size on simple mixing with a liposome” value in series [1] (glycolipid simply mixed with liposome) is “tended to increase in size”. Besides, the “Liposome PDI” value in series [2] (setting [4]) turned out to be 0.353; in series [2] (setting [5]) it was 0.412; in series [2] (setting [9]), 0.405; in series [2] (setting [6]), 0.552; in series [2] (setting [7]) it was 0.793; in series [2] (setting [8]) it was 0.887. Further, the Liposome size distribution result in series [2] (glycolipid incorporated during lipid dissolution (encapsulated liposome), FIG. 3) is listed as “not uniform”; in series [2] (simple mixing of liposome with glycolipid (adsorbed liposome), FIG. 4), “not uniform”. Also, in series [2] (over glycolipid contents 6, 3, 1 mol %), the “Dispersibility of the liposome (PDI)” value is “increased depending on concentration”. For the same substance, the “Liposome surface charge (mV)” value is 57.0 ± 3.0 mV in series [3] (setting [4]); 56.2 ± 0.6 mV in series [3] (setting [5]); 23.7 ± 0.6 mV in series [3] (setting [9]); 57.8 ± 1.6 mV in series [3] (setting [6]); 56.9 ± 3.4 mV in series [3] (setting [7]); 48.5 ± 1.4 mV in series [3] (setting [8]). For the same substance, in series [3] (mixed at a high content of 6 mol %), the Surface charge change result is given as “decreased sharply”.
